Results published in article PMC6199744, “Development of Chemical Proteomics for the Folateome and Analysis of the Kinetoplastid Folateome” (ACS Infectious Diseases, 2018).

Tested on: L. major lysate proteins
Experiment: Multitargeted bead mixture chemoproteomics, single concentration competition, proteome-wide
Format: binding
Conditions: for fold change: vehicle control = 1

## NCCOCCOCC(=O)Nc1nc2ncc(CNc3ccc(C(=O)NC(CCC(=O)O)C(=O)O)cc3)nc2c(=O)[nH]1 (stereo not shown) [compound 6]
Protein LMJF.15.0690 HY[…], CONSERVED
  fold change vs vehicle control: 1.26
Protein LMJF.15.1010 GLUTAMATE DEHYDROGENASE
  fold change: 1.11
Protein LMJF.15.1190 HY[…], CONSERVED (cyclic nucleotide-binding domain containing protein, putative)
  fold change: 1.07
Protein LMJF.16.0520 HYPOTHETICAL PROTEIN, CONSERVED
  fold change vs vehicle control: 0.99
Protein LMJF.16.0540 ASPARTATE […], PUTATIVE
  fold change vs vehicle control: 1.06
Protein LMJF.16.0760, TRANSALDOLASE, PUTATIVE
  fold change relative to vehicle control: 1.36
Protein LMJF.16.0940 DYNEIN LIGHT CHAIN, PUTATIVE
  fold change vs vehicle control: 0.92
Protein LMJF.16.1180, COATOMER DELTA SUBUNIT-LIKE PROTEIN
  fold change relative to vehicle control: 1.24
Protein LMJF.16.1320, […], PUTATIVE
  fold change relative to vehicle control: 1.33
Protein LMJF.16.1420, HY[…], CONSERVED
  fold change relative to vehicle control: 1.05
Protein LMJF.17.0081, […] 1-ALPHA
  fold change relative to vehicle control: 1.09
Protein LMJF.18.0270, GLYCOGEN SYNTHASE KINASE, PUTATIVE
  fold change relative to vehicle control: 1.13
Protein LMJF.18.0580 PEROXISOMAL ENOYL-COA HYDRATASE, PUTATIVE
  fold change: 0.98
Protein LMJF.18.0680, CITRATE SYNTHASE, PUTATIVE
  fold change relative to vehicle control: 1.1
Protein LMJF.18.1010 DYNEIN LIGHT CHAIN 2B, CYTOPLASMIC, PUTATIVE
  fold change vs vehicle control: 0.82
Protein LMJF.18.1210 PROLYL-TRNA SYNTHETASE, PUTATIVE,BIFUNCTIONAL AMINOACYL-TRNA SYNTHETASE, PUTATIVE
  fold change vs vehicle control: 1
Protein LMJF.18.1370 HEAT SHOCK PROTEIN, PUTATIVE
  fold change vs vehicle control: 1.1
Protein LMJF.19.0200 ADP,ATP CARRIER PROTEIN 1, MITOCHONDRIAL PRECURSOR, PUTATIVE
  fold change: 1.1
Protein LMJF.19.1120 PROTEASOME REGULATORY NON-ATP-ASE SUBUNIT, PUTATIVE
  fold change vs vehicle control: 0.96
Protein LMJF.19.1160 HY[…], CONSERVED
  fold change vs vehicle control: 1.08
Protein LMJF.19.1560 INOSINE-5'-MONOPHOSPHATE DEHYDROGENASE
  fold change vs vehicle control: 0.98
Protein LMJF.19.1620, POTASSIUM VOLTAGE-GATED CHANNEL, PUTATIVE
  fold change relative to vehicle control: 1.05
Protein LMJF.20.1280 SMALL MYRISTOYLATED PROTEIN 4, PUTATIVE
  fold change vs vehicle control: 0.89
Protein LMJF.21.0810 METHIONYL-TRNA SYNTHETASE, PUTATIVE
  fold change: 1.03
Protein LMJF.21.1450 ARGININE N-METHYLTRANSFERASE, TYPE II, PUTATIVE
  fold change: 0.96
Protein LMJF.21.1830 […] 5 SUBUNIT, PUTATIVE,20S […] ALPHA 5, (PUTATIVE)
  fold change vs vehicle control: 1.01
Protein LMJF.22.0230 AMINO ACID PERMEASE, PUTATIVE
  fold change: 1.05
Protein LMJF.22.0570 […] SUBUNIT 1, PUTATIVE
  fold change vs vehicle control: 1.03
Protein LMJF.22.0730 HYPOTHETICAL PROTEIN, CONSERVED
  fold change vs vehicle control: 0.94
Protein LMJF.22.0770 NADH-CYTOCHROME B5 REDUCTASE, PUTATIVE
  fold change: 0.79
Protein LMJF.23.0020, HY[…], CONSERVED
  fold change relative to vehicle control: 1.46
Protein LMJF.23.0040, PEROXIDOXIN
  fold change relative to vehicle control: 0.97
Protein LMJF.23.0080, HY[…], CONSERVED
  fold change relative to vehicle control: 1.04
Protein LMJF.23.0210 ATP-BINDING CASSETTE PROTEIN SUBFAMILY C, MEMBER 1, PUTATIVE
  fold change: 0.92
Protein LMJF.23.0370 CYTOCHROME C OXIDASE SUBUNIT 10, PUTATIVE
  fold change: 0.83
Protein LMJF.23.0540, ACETYL-COA SYNTHETASE, PUTATIVE
  fold change relative to vehicle control: 1.23
Protein LMJF.23.0560 KINESIN, PUTATIVE
  fold change vs vehicle control: 1.1
Protein LMJF.23.1410 HY[…], CONSERVED
  fold change vs vehicle control: 1.01
Protein LMJF.24.0070, HYPOTHETICAL PROTEIN, CONSERVED
  fold change relative to vehicle control: 0.93
Protein LMJF.24.0140 ANKYRIN/TPR REPEAT PROTEIN
  fold change: 1.06
Protein LMJF.24.0400 HY[…], CONSERVED (TPR repeat, putative)
  fold change: 1.02
Protein LMJF.24.1510, IGE-DEPENDENT HISTAMINE-RELEASING FACTOR, PUTATIVE
  fold change relative to vehicle control: 1.54
Protein LMJF.24.1630, SUCCINATE DEHYDROGENASE FLAVOPROTEIN, PUTATIVE
  fold change relative to vehicle control: 1.08
Protein LMJF.24.2060, TRANSKETOLASE
  fold change relative to vehicle control: 1.04
Protein LMJF.25.0010, BETA […] TRANSFERASE
  fold change relative to vehicle control: 1.13
Protein LMJF.25.0910, CYCLOPHILIN A
  fold change relative to vehicle control: 2.21
Protein LMJF.25.1130 CYTOCHROME C OXIDASE VII, PUTATIVE
  fold change vs vehicle control: 0.99
Protein LMJF.25.1180, ATPASE BETA SUBUNIT, PUTATIVE
  fold change relative to vehicle control: 1.13
Protein LMJF.25.1610 HY[…], CONSERVED
  fold change vs vehicle control: 1.01
Protein LMJF.25.1620 HYPOTHETICAL PROTEIN, CONSERVED
  fold change vs vehicle control: 1.1
Protein LMJF.25.2340 SERINE/THREONINE-PROTEIN KINASE, PUTATIVE,PROTEIN KINASE, PUTATIVE
  fold change: 0.74
Protein LMJF.26.0630, HYPOTHETICAL PROTEIN, CONSERVED
  fold change relative to vehicle control: 0.77
Protein LMJF.26.1240 HEAT SHOCK PROTEIN 70-RELATED PROTEIN
  fold change vs vehicle control: 1.06
Protein LMJF.26.1710 CYTOCHROME C OXIDASE SUBUNIT V, PUTATIVE
  fold change: 0.98
Protein LMJF.26.2480 CDP-DIACYLGLYCEROL--INOSITOL 3-[…], PUTATIVE
  fold change vs vehicle control: 1.06
Protein LMJF.26.2560 HYPOTHETICAL PROTEIN, CONSERVED
  fold change vs vehicle control: 0.93
Protein LMJF.27.0190 PROTEASOME ALPHA 7 SUBUNIT, PUTATIVE
  fold change vs vehicle control: 0.98
Protein LMJF.27.0650 HY[…], CONSERVED
  fold change: 1.15
Protein LMJF.27.0700 HY[…], CONSERVED
  fold change: 1.08
Protein LMJF.27.0760 GTP-binding protein homologue
  fold change vs vehicle control: 1.08
Protein LMJF.27.1060 CYSTEINE DESULFURASE, PUTATIVE
  fold change vs vehicle control: 1.09
Protein LMJF.27.1110 MITOCHONDRIAL RNA BINDING PROTEIN 1,GBP21, MRP1
  fold change vs vehicle control: 1
Protein LMJF.27.1250 HYPOTHETICAL PROTEIN, CONSERVED (Serine-threonine kinase receptor-associated protein, putative)
  fold change: 0.85
Protein LMJF.27.1390, 60S ACIDIC RIBOSOMAL SUBUNIT PROTEIN, PUTATIVE
  fold change relative to vehicle control: 1.07
Protein LMJF.27.1460 PROTEASOME REGULATORY NON-ATP-ASE SUBUNIT 3, PUTATIVE
  fold change: 1.1
Protein LMJF.28.0110 […] 3 SUBUNIT, PUTATIVE
  fold change vs vehicle control: 1.01
Protein LMJF.28.0490 PROPIONYL-COA CARBOXYLASE BETA CHAIN, PUTATIVE
  fold change vs vehicle control: 1.2
